Laboratory results: patent US20100323990A1, “SHIP 1 MODULATOR PRODRUGS” (THE UNIVERSITY OF BRITISH COLUMBIA, priority 2006, published 2010)

Tests used:
[1] = test system: SHIP+/+ bone marrow derived macrophages; experiment: LPS-stimulated TNFα production in SHIP+/+ bone marrow derived macrophages; type: cell-based, mice; conditions: for suppression of TNFα production: SHIP+/+ cells, 10 ng/mL LPS 2 h
Description: Bone marrow cells were aspirated from 4 to 8 week old C57B16×129Sv mixed background mice and SHIP^+/+ and SHIP^−/− mast cells prepared as described previously. Bone marrow derived macrophages from SHIP^+/+ and SHIP^−/− mice were obtained and maintained in IMDM supplemented with 10% FCS, 150 μM MTG, 2% C127 cell conditioned medium as a source of macrophage colony stimulating factor (M-CSF) (macrophage medium)
LPS stimulation of macrophages. For the analysis of LPS-stimulated TNFα production, 2×10^5 cells were plated the night before in 24 well plates in macrophage medium. The next day, the medium was changed and AQX-016A or carrier was added to cells at the indicated concentrations for 30 min prior to the addition of 10 ng/mL LPS. Supernatants were collected for TNFα determination by ELISA (BD Biosciences, Mississauga, ON, Canada). For analysis of intracellular signaling, 2×10^6 cells were plated the night before in 6 cm tissue culture plates. The next day, the cells were cultured in macrophage medium without M-CSF for 1 hr at 37° C. and then pretreated with AQX-016A or carrier for 30 min prior to the addition of 10 ng/mL LPS for 15 min. Cells were washed with 4° C. PBS and resuspended in lysis buffer (50 mM Hepes, 2 mM EDTA, 1 mM NaVO4, 100 mM NaF, 50 mM NaPPi and 1% NP40) supplemented with Complete Protease Inhibitor Cocktail (Roche, Montreal, Canada). Lysates were rocked at 4° C. for 30 min and clarified by centrifuging 20 min at 12000×g. Lysates were then made 1× in Laemmli's buffer, boiled 2 min and loaded onto 7.5% SDS polyacrylamide […]. Immunoblot analysis for phospho PKB (Cell Signalling, Mississauga, Ont), SHIP and actin (Santa Cruz, Santa Cruz, Calif.) were carried out as described previously. Stimulation of mast cells by FcεRI crosslinking. Mast cells were pre-loaded overnight in BMMC medium lacking IL-3 with 0.1 μg/ml anti-DNP IgE (SPE-7, Sigma, Oakville, Ont). For calcium flux measurements, cells were incubated with 2 μM fura 2-acetoxymethyl ester (Molecular Probes, Eugene, Oreg.) in Tyrode's buffer at 23° C. for 45 min. Cells were then washed and incubated in the presence of vehicle control, LY294002 or AQX-016A 30 min prior to stimulation with the indicated concentration of DNP-human serum albumin (DNP-HSA). Calcium influx was monitored by spectrofluorometry. For analysis of intracellular signaling, cells were pre-loaded with anti-DNP IgE as above, pre-treated with AQX-016A or buffer control for 30 min at 37° C. and stimulated with 20 ng/ml DNP-HSA for 5 min. Total cell lysates were then prepared and analyzed for phospho-PKB, phospho-p38^MAPK, phospho-MAPK, Grb-2 (Cell Signalling, Mississauga, Ont) and SHIP^6 by immunoblot analysis.
The target specificity and biological efficacy of AQX-016A were assessed by comparing AQX-016A's effects on PI3K-regulated processes in primary SHIP^+/+ vs SHIP^−/− macrophages and mast cells. […] LPS stimulation of macrophages is associated with a PIP3-dependent release of pro-inflammatory mediators such as TNFα. The action of AQX-016A on SHIP^+/+ vs SHIP^−/− bone marrow derived macrophages was examined. Cells were pretreated for 30 min with AQX-016A prior to stimulation with 10 ng/mL of LPS for 2 h. AQX-016A was able to suppress TNFα production in SHIP^+/+ cells by 30% at 3 μM and 50% at 15 μM (FIG. 8A). […] Activation of mast cells via IgE+ antigen crosslinking of their IgE receptors results in elevation of intracellular calcium levels.

[2] = Initial toxicology studies; type: in vivo; conditions: data not shown
From the text: A novel paradigm for inhibiting PI3K signaling through activation of the phosphatases that negatively regulate this pathway is provided. SHIP is a particularly good target for immune/hematopoietic disorders because of its restricted expression to hematopoietic cells. Because the relative activity of phosphatases present in a cell will influence the efficacy of kinase inhibitors, as discussed by Knight and Shokat, SHIP agonists may also be used to potentiate the activation of PI3K inhibitors and promote tissue targeting of PI3K inhibitors to the ematopoietic/immune cell compartment.

EC50 ([1]; Mus musculus, Macrophage, SHIP+/+ macrophages, LPS stimulated, read-out: EC50 for inhibition of TNFα production)	Structure (SMILES)	TNFα production, SHIP+/+ vs SHIP−/− macrophages ([1]; LPS stimulated)	peripheral blood cell counts and bone marrow progenitor numbers [2]	tolerability [2]	suppression of TNFα production ([1]; 3 μM)	suppression of TNFα production ([1]; 15 μM)
300 to 600 nM	Cc1cc(O)cc2c1[C@]1(C)CCC3C(C)(C)CCC[C@]3(C)[C@H]1C2 (some centres unmarked) [Compound 100]	selectively inhibited	do not significantly affect	well tolerated	–	–
–	Cc1cc(O)c(O)c2c1[C@]1(C)CCC3C(C)(C)CCC[C@]3(C)[C@H]1C2 (some centres unmarked) [AQX-016A]	–	do not significantly affect	well tolerated	30%	50%
